*1 amine or outer side, *2 acyl side, *3 side chain or, on linkers, in order; H or OH if unused. Where a SMILES comes first, the peptide text is derived from it. Bridges are numbered along the chain shown (N, C = ends). [ ]: non-standard residue; d: D form. The star is where a group is joined. Orn(4R-OH,5R-OH) = O=C([C@H](C[C@@H](O)[C@@H](O)N[*:3])N[*:1])[*:2]; hTyr(3S-OH,4S-OH) = N[C@H](C(=O)O)[C@H](O)[C@@H](O)c1ccc(O)cc1; Pro(3S-OH,4S-Me) = C[C@H]1CN[C@H](C(=O)O)[C@H]1O; Benzoyl(4-octyloxy) = CCCCCCCCOc1ccc(C(=O)*)cc1; Hyp = O=C(O)[C@@H]1C[C@@H](O)CN1
Assays:
[1] = system: C. albicans wild-type, ΔCOS-1/ΔCOS-1, hemizygous and reconstituted strains; experiment: Sensitivity of C. albicans COS-1 strains to antifungal drugs in liquid RPMI medium (NCCLS M27-T); format: cell-based, Candida albicans
Method: For determination of viability and growth, each strain tested was grown from −80° C. stocks overnight at 37° C. in 50 ml of Sabouraud dextrose broth (30 g/L) (Difco, Catalog Number 0382-17-9) in 250 ml flasks with shaking at 180 rpm. Three hundred milliliter Nephelo flasks (Bellco) containing 60 ml medium were inoculated with 1×10^6 cells/ml (final concentration) from the starter culture and incubated at 37° C. with orbital shaking at 180 rpm. The optical density of each culture was determined periodically using a Klett-Summerson Photoelectric Colorimeter (Klett). For cell viability determination, overnight cultures were diluted and known numbers (as determined by hemacytometer counts) were plated onto agar-solidified SD medium and the numbers of resulting colonies determined. The sensitivity of each strain to a number of antifungal drugs in liquid medium was performed essentially as described in the National Committee for Clinical Laboratory Standards (NCCLS) 27T-protocol (Galgiani et al., NCCLS, 15:1-29 [1995]).

[2] = system: A. fumigatus wild-type and ΔFOS-1 strains; experiment: Sensitivity to antifungals, variation of NCCLS M27T-protocol (microtiter broth); format: cell-based, Aspergillus fumigatus; conditions: 1×RPMI medium, 48 hours, 37° C., 96-well plates
Method: Sensitivity to antifungals: To assess the differential sensitivities of the wild-type and ΔFOS-1 strains to a number of antifungal compounds, the minimum inhibitor concentration of amphotericin B, nikkomycin Z, benomyl, miconazole, ketoconazole, fluconazole, cilofungin, 5-fluorocytosine and calcofluor white M2R new against the wild-type and ΔFOS-1 strains was determined. This fungal sensitivity was determined using a variation of the National Committee for Clinical Laboratory Standards (NCCLS) M27T-protocol (Galgiani et al., NCCLS, 15:1-29 [1995]). Briefly, serial dilutions of the anti-fungal drugs were made in 100 μl 1×RPMI medium (Life Technologies) and an additional 100 μl 1×RPMI medium containing 2×10^4 conidia/ml of each strain was added to each well of 96-well microtiter plates. Plates were incubated for 48 hours with gentle shaking at 37° C. The amount of growth in each well was estimated using a inverted phase microscope.

[3] = system: A. fumigatus wild-type and ΔFOS-1 strains; experiment: Effect of oxidative stress compounds on hyphal growth; format: cell-based, Aspergillus fumigatus; conditions: agar-solidified MPG medium; diamide 0-2 mM or menadione 0-0.06 mM; 37° C., 3 days
Method: Effect of oxidative stress compounds: To determine the effect of various oxidative stress-inducing compounds on hyphal growth in the wild-type and ΔFOS-1 strains, 2 μl water containing 1×10^3 conidia were placed as single spots onto 150 mm×15 mm petri plates containing 30 ml agar-solidified MPG medium. In addition, these agar plates contained either diamide (0-2 mM; Sigma) (an SH residue oxidant that attacks surface proteins; de Souza Pereira and Geibel, J. Mol. Cell Biochem., 201:17-24 [1999]), or menadione (0-0.06 mM; Sigma Aldrich) (a superoxide generator; Caricchio et al., Clin. Immunol., 93:65-74 [1999]). These plates were incubated at 37° C. for 3 days. Hyphal growth/extension rates were determined by recording the distance traveled by hyphal fronts after various times of incubation.

[4] = system: A. fumigatus wild-type strain; experiment: Dicarboximide drug sensitivity: hyphal extension on agar-solidified MPG medium, wild-type strain; format: cell-based, Aspergillus fumigatus; conditions: mean ± standard deviation of at least 12 data points
Method: (§1) Although an understanding of the mechanism is not necessary in order to use the present invention, resistance to dicarboximide antifungals by a number of fungi appears to involve a histidine kinase mutation. […] To test if the ΔFOS-1 strain was also resistant to vinclozolin, iprodione and procymidone, the growth of wild-type and ΔFOS-1 strains on medium containing each drug was examined. Briefly, wild-type and ΔFOS-1 conidia (1×10^3 in 2 μl) were inoculated onto agar-solidified MPG medium containing 10 μg/ml vinclozolin or iprodione, or 12 μg/ml procymidone. Hyphal extension rates in mm/hr were recorded, and a mean determined based on at least 12 individual data points. Results are shown±standard deviation. P values were calculated using the Students t test (http://nimitz.mcs.kent.edu/˜blewis/stat/tTest.html).

[5] = system: A. fumigatus ΔFOS-1 strain; experiment: Dicarboximide drug sensitivity: hyphal extension on agar-solidified MPG medium, ΔFOS-1 strain; format: cell-based, Aspergillus fumigatus; conditions: mean ± standard deviation of at least 12 data points
Method: as §1

[6] = system: OS-1 mutant strains of N. crassa; conditions: Beever 1983; cited from earlier work
[7] = 12 μg/ml drug in agar-solidified MPG medium
[8] = 10 μg/ml drug in agar-solidified MPG medium

Structure (SMILES)	Relative sensitivity of wild-type, ΔCOS-1/ΔCOS-1, hemizygous and reconstituted strains [1]	Difference in minimum inhibitor concentration between wild-type and ΔFOS-1 strains [2]	further results
CCCCNC(=O)n1c(NC(=O)OC)nc2ccccc21 [benomyl]	equally sensitive	No differences in minimum inhibitor concentration	
CN(C)C(=O)/N=N/C(=O)N(C)C [diamide]			Difference in hyphal growth/extension rates between wild-type and ΔFOS-1 strains [3]: No differences in hyphal growth/extension rates
C[C@@H]([C@H](N)C(=O)N[C@H](C(=O)O)[C@H]1O[C@@H](n2ccc(=O)[nH]c2=O)[C@H](O)[C@@H]1O)[C@H](O)c1ccc(O)cn1 [nikkomycin Z]	equally sensitive	No differences in minimum inhibitor concentration	
C[C@@H]1[C@H](O)[C@@H](C)/C=C/C=C/C=C/C=C/C=C/C=C/C=C/[C@H](O[C@@H]2O[C@H](C)[C@@H](O)[C@H](N)[C@@H]2O)C[C@@H]2O[C@](O)(C[C@@H](O)C[C@@H](O)[C@H](O)CC[C@@H](O)C[C@@H](O)CC(=O)O[C@H]1C)C[C@H](O)[C@H]2C(=O)O [amphotericin B]	equally sensitive	No differences in minimum inhibitor concentration	
Nc1nc(=O)[nH]cc1F [5-fluorocytosine]	equally sensitive	No differences in minimum inhibitor concentration	
Clc1ccc(COC(Cn2ccnc2)c2ccc(Cl)cc2Cl)c(Cl)c1 (stereo not drawn) [miconazole]	equally sensitive	No differences in minimum inhibitor concentration	
CC(=O)N1CCN(c2ccc(OCC3COC(Cn4ccnc4)(c4ccc(Cl)cc4Cl)O3)cc2)CC1 (stereo not drawn) [ketoconazole]	equally sensitive	No differences in minimum inhibitor concentration	
CC1=CC(=O)c2ccccc2C1=O [menadione]			Difference in hyphal growth/extension rates between wild-type and ΔFOS-1 strains [3]: No differences in hyphal growth/extension rates
O=S(=O)([O-])c1cc(Nc2nc(Nc3ccccc3)nc(N(CCO)CCO)n2)ccc1/C=C/c1ccc(Nc2nc(Nc3ccccc3)nc(N(CCO)CCO)n2)cc1S(=O)(=O)[O-].[Na+].[Na+] [calcofluor white M2R new]		No differences in minimum inhibitor concentration	
CCCCCCCCOc1ccc(C(=O)N[C@H]2C[C@@H](O)[C@@H](O)NC(=O)[C@@H]3[C@@H](O)[C@@H](C)CN3C(=O)[C@H]([C@@H](C)O)NC(=O)[C@H]([C@H](O)[C@@H](O)c3ccc(O)cc3)NC(=O)[C@@H]3C[C@@H](O)CN3C(=O)[C@H]([C@@H](C)O)NC2=O)cc1 [cilofungin] ({Benzoyl(4-octyloxy)}-[Orn(4R-OH,5R-OH)]T[Hyp][hTyr(3S-OH,4S-OH)]T[Pro(3S-OH,4S-Me)]; lactam 1-C)	equally sensitive	No differences in minimum inhibitor concentration	
CC12CC1(C)C(=O)N(c1cc(Cl)cc(Cl)c1)C2=O (stereo not drawn) [procymidone]			Hyphal extension rate, wild-type [4, 7]: 0.21 ± 0.13 mm/hr; Hyphal extension rate, ΔFOS-1 [5, 7]: 0.48 ± 0.08 mm/hr
C=CC1(C)OC(=O)N(c2cc(Cl)cc(Cl)c2)C1=O (stereo not drawn) [vinclozolin]	equally sensitive		Hyphal extension rate, wild-type [4, 8]: 0.34 ± 0.11 mm/hr; Resistance of OS-1 mutant strains [6]: highly resistant; Hyphal extension rate, ΔFOS-1 [5, 8]: 0.50 ± 0.05 mm/hr
OC(Cn1cncn1)(Cn1cncn1)c1ccc(F)cc1F [fluconazole]	equally sensitive	No differences in minimum inhibitor concentration	
CC(C)NC(=O)N1CC(=O)N(c2cc(Cl)cc(Cl)c2)C1=O [iprodione]			Hyphal extension rate, wild-type [4, 8]: 0.29 ± 0.11 mm/hr; Hyphal extension rate, ΔFOS-1 [5, 8]: 0.52 ± 0.03 mm/hr
